Measured values taken from patent publication US20170209534A1, “Pseudhymenochirins As Agents For Treatment Of Cancer And Microbial Infections” (priority 2014, published 2017).
Read-outs that look alike come from different tables or passages of the source. No end group written: not given here.

Tests used:
[1] = tested on: Stenotrophomonas maltophilia strains; settings: all Stenotrophomonas strains (B32/1, B32/4, B5/5, B6/2, U8708); cited from earlier work
Acinetobacter strains = settings: strains NM8, NM35, NM75, NM109, NM124; Mechkarska et al., 2013; cited from earlier work
[2] = tested on: human breast adenocarcinoma MDA-MB-231 cells; assay: Viability assay (CellTiter-Glo, ATP), MDA-MB-231; type: cell-based; settings: 24 h exposure; mean ± S.E.M.; read-out: LC50 MDA-231
Protocol: (§1) For cytotoxicity assay, the effect of the peptides on three different types of cancer cells were analysed, human non-small cell lung adenocarcinoma A549 cells, human breast adenocarcinoma MDA-MB-231 cells and human colorectal adenocarcinoma HT-29 cells. As control, HUVEC cell line was selected.
(§2) A549 cell line was maintained in RPMI 1640 medium containing 2 mM L-glutamine and supplemented with 10% FCS at 37° C. MDA-MB-231 and HT-29 cell lines were maintained in DMEM medium supplemented with 10% FCS at 37° C. The medium for cancer cells were further supplemented with antibiotics, penicillin 50 U/mL and streptomycin […]. HUVEC cells were maintained in EndoGRO MV-VEGF Complete Media Kit at 37° C.
(§3) The cells from each of the four cell lines were seeded individually in a 96-wells plate at a cell density of 5×10^3 cells/well. […]
(§4) The effect of the peptides on the cell viability was determined by the measurement of the concentration of ATP using CellTitre-Glo Luminescent Cell Viability assay. Luminescent signals were measured using a GLOMAX Luminometer system.
(§5) The LC50 value was calculated for both the peptides for individual cell lines by conducting non-linear regression analysis using commercially available software (SPPS version 17.0; SPS Inc, Chicago, Ill., USA). […]

[3] = tested on: human colorectal adenocarcinoma HT-29 cells; assay: Viability assay (CellTiter-Glo, ATP), HT-29; type: cell-based; settings: 24 h exposure; mean ± S.E.M.; read-out: LC50 HT-29
Protocol: as §1, §2, §3, §4, §5

in vitro = type: cell-based
Protocol: as §1, §2, §3, §4, §5

Haemolysis assay = type: cell-based, human; settings: human, pH 7.4
Protocol: (§6) For analysis of the haemolytic activity, RBCs (2×10^7 cells) taken from a healthy donor in DBPS, pH 7.4 (100 μL) were incubated with Ps-1Pb and Ps-2 Pa respectively in varying concentrations ranging from 1.6 μM to 100 μM of the peptides for a period of 1 hour at 37° C. After 1 hr, the samples were centrifuged at 12000 rpm for 15 seconds and the supernatant was collected. Absorbance of the supernatant was measured at 450 nm.
(§7) As control, the RBCs at a concentration of 2×10^7 were incubated in DBPS as a negative control to detect the absorbance in the absence of haemolysis. In addition, positive control was also maintained in which the RBC at a concentration of 2×10^7 was incubated with DPBS and 1% v/v Tween-20. The controls were centrifuged at 12000 rpm for 15 seconds and an absorbance reading was taken for the supernatant at 450 nm.
(§8) The LC50 value was taken as the mean concentration of peptide producing 50% haemolysis in three independent experiments.

[4] = tested on: human red blood cells (RBC); assay: Haemolysis assay; type: cell-based
Protocol: as §6, §7, §8

[5] = tested on: S. aureus (ATCC 25923 and MRSA clinical isolates); type: cell-based, Staphylococcus aureus; settings: for Minimum inhibitory concentration S. aureus ATCC 25923 / Minimum inhibitory concentration S. aureus S908: ATCC 25923; for Minimum inhibitory concentration S. aureus 127/08 / Minimum inhibitory concentration S. aureus 145/08 / Minimum inhibitory concentration S. aureus 274/08 / Minimum inhibitory concentration S. aureus T4/6: MRSA clinical isolate
Description: Six clinical sporadic isolates of MRSA were isolated from the wounds of patients admitted to Tawam Hospital (Al Ain, UAE). The strains were characterised by multi-locus sequence typing (MLST), Staphylococcal cassette chromosome (SCCmec) typing, accessory gene regulator (agr) typing, Staphylococcus protein A (spa) typing, and toxin gene carriage (Sonnevend et al., 2012). The isolated strains (127/08, 145/08, 274/08, V4180, S908, and T4/6) were resistant to all β-lactam antibiotics tested and to a range of non-β-lactam antibiotics.
(§9) Minimum Inhibitory Concentration (MIC) of the peptides was determined in duplicate in three independent experiments by standard micro-dilution methods according to CLSI guidelines (Clinical Laboratory and Standards Institute 2008a, 2008b) using 96-well microtitre cell-culture plates.
(§10) For bacteria assays, serial dilutions of the peptides (0.6-80 μM) in Mueller-Hinton broth (50 μL) were mixed with an inoculum of 50 μL of 10^6 colony forming units (CFU)/mL) from a log-phase culture. The peptide and inoculum mixture was incubated for 18 h at 37° C. in a humidified atmosphere. For yeast, an inoculum of 5×10^4 CFU/mL from Candida albicans was incubated in the presence of serial dilutions of the peptides (0.6-80 μM) in RPMI 1640 medium for 48 h at 35° C. After incubation, the absorbance at 630 nm of each well was determined using a microtiter plate reader.
(§11) As a control, incubations were carried out in parallel with increasing concentrations of antibiotics wherever the isolate was originally susceptible (ampicillin for S. aureus and E. coli, ciprofloxacin for K. pneumoniae and P. aeruginosa, and amphotericin B for C. albicans).

S. epidermidis = assay: MIC by micro-dilution, S. epidermidis; type: cell-based; settings: for Minimum inhibitory concentration S. epidermidis RP62A: strain RP62A; for Minimum inhibitory concentration S. epidermidis RP62A/1: strain RP62A/1; for Minimum inhibitory concentration S. epidermidis T6/19: strain T6/19; for Minimum inhibitory concentration S. epidermidis T37/8: strain T37/8
Protocol: as §9, §10

E. faecalis ATCC 29212 = assay: MIC by micro-dilution, E. faecalis; type: cell-based, Enterococcus faecalis; settings: reference strain
Protocol: as §9, §10

E. coli = assay: MIC by micro-dilution, E. coli; type: cell-based; settings: reference strain
Protocol: as §9, §10, §11

K. pneumoniae = assay: MIC by micro-dilution, K. pneumoniae; type: cell-based; settings: reference strain
Protocol: as §9, §10, §11

P. aeruginosa = assay: MIC by micro-dilution, P. aeruginosa; type: cell-based; settings: reference strain
Protocol: as §9, §10, §11

C. albicans = assay: MIC by micro-dilution, C. albicans; type: cell-based, Candida albicans; settings: reference strain; RPMI 1640, 48 h at 35° C.
Protocol: as §9, §10, §11

A. baumannii = tested on: A. baumannii
Protocol: (§12) Acinetobacter strains (NM8, NM35, NM75, NM109, and NM124) were isolated from different hospitals in the UAE. The Acinetobacter strains were characterised based on PCR analysis. […] Stenotrophomonas maltophilia strains (B32/1, B32/4, B5/5, B6/2, and U8708) were isolated from patients with bloodstream infection as discussed in Jumaa et al, 2006.
as §9, §10

S. maltophilia = tested on: S. maltophilia
Protocol: as §12, §9, §10

S. aureus (ATCC 25923) = type: cell-based; settings: 4×MIC, within 180 min
Protocol: In order to determine the rate at which the peptides caused cell death, log-phase cultures of S. aureus (ATCC 25923) and E. coli (ATCC 25726) at a concentration of 0.5×10^6 CFU/mL in Mueller-Hinton broth (1 ml) were incubated in polypropylene tubes at 37° C. with Ps-1Pb at a concentration of 4×MIC. Control incubations in the absence of peptide were also carried out. Aliquots of 25 μl were removed at the time intervals 0, 0.5, 1, 2, 3, 4 and 24 hrs and the CFU of the serially diluted samples was determined on Mueller-Hinton agar plates. The time required for 99.9% cell death was determined.

[6] = 1 hour at 37° C., mean ± S.E.M., read-out: LC50 RBC (50% haemolysis)

C[C@@H](O)[C@H]1C(=O)N2C(C(=O)O)=C(S[C@@H]3CN[C@H](C(=O)N(C)C)C3)[C@H](C)[C@H]12 [meropenem]
MIC against Stenotrophomonas strains [1]: > 32 µg/mL

CN(C)c1cc(NC(=O)CNC(C)(C)C)c(O)c2c1C[C@H]1C[C@H]3[C@H](N(C)C)C(O)=C(C(N)=O)C(=O)[C@@]3(O)C(O)=C1C2=O [tigecycline]
susceptibility of Acinetobacter strains (in words) (Acinetobacter strains): sensitive

GIFPIFAKLLGKVIKVASSLISKGRTE [Pseudhymenochirin-2Pa, Pseudhymenochirin-2 Pa]
CC50 [2]: 6.2 ± 0.6 µM | CC50 [3]: 11.5 ± 2.6 µM | CC50 at 24 h (in vitro; 24 h exposure, non-neoplastic cells, mean ± S.E.M., read-out: LC50 HUVEC): 68 µM | HC50 at 1 hour (Haemolysis assay; [6]): 6.2 ± 1 µM | CC50 [4, 6]: 6 µM | haemolytic activity (in words) ([4]; human erythrocytes): appreciable haemolytic activity | Minimum inhibitory concentration S. aureus V4180 [5]: 10 µM | Minimum inhibitory concentration S. aureus ATCC 25923 [5]: 5 µM | Minimum inhibitory concentration S. aureus S908 [5]: 10 µM | Minimum inhibitory concentration S. aureus 127/08 [5]: 5 µM | Minimum inhibitory concentration S. aureus 145/08 [5]: 10 µM | Minimum inhibitory concentration S. aureus 274/08 [5]: 10 µM | Minimum inhibitory concentration S. aureus T4/6 [5]: 10 µM | Minimum inhibitory concentration S. epidermidis RP62A (S. epidermidis): 5 µM | Minimum inhibitory concentration S. epidermidis RP62A/1 (S. epidermidis): 2.5 µM | Minimum inhibitory concentration S. epidermidis T6/19 (S. epidermidis): 5 µM | Minimum inhibitory concentration S. epidermidis T37/8 (S. epidermidis): 10 µM | Minimum inhibitory concentration E. faecalis ATCC 29212 (E. faecalis ATCC 29212): 20 µM | Minimum inhibitory concentration E. coli (E. coli): >80 µM | Minimum inhibitory concentration K. pneumoniae (K. pneumoniae): >80 µM | Minimum inhibitory concentration P. aeruginosa (P. aeruginosa): >80 µM | Minimum inhibitory concentration C. albicans (C. albicans): 80 µM | Minimum inhibitory concentration A. baumannii NM8 (A. baumannii): 20 µM | Minimum inhibitory concentration A. baumannii NM35 (A. baumannii): 10 µM | Minimum inhibitory concentration A. baumannii NM75 (A. baumannii): 10 µM | Minimum inhibitory concentration A. baumannii NM109 (A. baumannii): 10 µM | Minimum inhibitory concentration A. baumannii NM124 (A. baumannii): 20 µM | Minimum inhibitory concentration S. maltophilia B5/5 (S. maltophilia; clinical isolate): 40 µM | Minimum inhibitory concentration S. maltophilia B6/2 (S. maltophilia; clinical isolate): 20 µM | Minimum inhibitory concentration S. maltophilia B32/1 (S. maltophilia; clinical isolate): 10 µM | Minimum inhibitory concentration S. maltophilia B32/4 (S. maltophilia; clinical isolate): 10 µM | Minimum inhibitory concentration S. maltophilia U8908 (S. maltophilia; clinical isolate): 20 µM

IKIPSFFRNILKKVGKEAVSLIAGALKQS [Pseudhymenochirin-1Pb]
CC50 at 24 h (in vitro; human): 5.6 ± 0.9 µM | HC50 at 1 hour (Haemolysis assay): 28 ± 2 µM | haemolytic activity (in words) [4]: high haemolytic activity | less cytotoxic to human erythrocytes as compared to the tumour cells [4]: 3-11 fold | Minimum inhibitory concentration S. aureus V4180 [5]: 5 µM | Minimum inhibitory concentration S. aureus ATCC 25923 [5]: 5 µM | Minimum inhibitory concentration S. aureus S908 [5]: 5 µM | Minimum inhibitory concentration S. aureus 127/08 [5]: 5 µM | Minimum inhibitory concentration S. aureus 145/08 [5]: 10 µM | Minimum inhibitory concentration S. aureus 274/08 [5]: 5 µM | Minimum inhibitory concentration S. aureus T4/6 [5]: 5 µM | Minimum inhibitory concentration S. epidermidis RP62A (S. epidermidis): 2.5 µM | Minimum inhibitory concentration S. epidermidis RP62A/1 (S. epidermidis): 1.25 µM | Minimum inhibitory concentration S. epidermidis T6/19 (S. epidermidis): 2.5 µM | Minimum inhibitory concentration S. epidermidis T37/8 (S. epidermidis): 2.5 µM | Minimum inhibitory concentration E. faecalis ATCC 29212 (E. faecalis ATCC 29212): 10 µM | Minimum inhibitory concentration E. coli (E. coli): 10 µM | Minimum inhibitory concentration K. pneumoniae (K. pneumoniae): 20 µM | Minimum inhibitory concentration P. aeruginosa (P. aeruginosa): 20 µM | Minimum inhibitory concentration C. albicans (C. albicans): 80 µM | MIC against clinical isolates of A. baumannii (range) (A. baumannii): 5 to 10 µM | Minimum inhibitory concentration A. baumannii NM8 (A. baumannii): 10 µM | Minimum inhibitory concentration A. baumannii NM35 (A. baumannii): 5 µM | Minimum inhibitory concentration A. baumannii NM75 (A. baumannii): 5 µM | Minimum inhibitory concentration A. baumannii NM109 (A. baumannii): 5 µM | Minimum inhibitory concentration A. baumannii NM124 (A. baumannii): 5 µM | MIC against clinical isolates of S. maltophilia (range) (S. maltophilia): 5 to 10 µM | Minimum inhibitory concentration S. maltophilia U8908 (S. maltophilia): 5 µM | Minimum inhibitory concentration S. maltophilia B5/5 (S. maltophilia; clinical isolate): 10 µM | Minimum inhibitory concentration S. maltophilia B6/2 (S. maltophilia; clinical isolate): 5 µM | Minimum inhibitory concentration S. maltophilia B32/1 (S. maltophilia; clinical isolate): 5 µM | Minimum inhibitory concentration S. maltophilia B32/4 (S. maltophilia; clinical isolate): 5 µM | killing of the bacteria, S. aureus (S. aureus (ATCC 25923)): > 99.9%

co-trimoxazole
MIC against Stenotrophomonas strains [1]: < 5 µg/mL

colistin
susceptibility of Acinetobacter strains (in words) (Acinetobacter strains): sensitive
